Assay results taken from patent publication US8377983B2, “Benzazole derivatives, compositions, and methods of use as aurora kinase inhibitors” (TransTech Pharma, Inc., priority 2006, dated 2013).
Values belong to the compound of their own block, whether it stands above or below them.

What was measured:
[1] = test system: HCT-116, BxPC-3, A549, BT-549, LNCaP, MIA Paca-2 tumor cells; test: In vitro cell proliferation (alamarBlue); format: cell-based; conditions: Homo sapiens; 96 hr incubation; read-out: IC50 against at least one of HCT-116, MIA Paca-2, or LNCaP cells
Experimental: Compounds are tested for their ability to inhibit cell proliferation and viability. The metabolic reduction of alamarBlue™ (Biosource cat. no. DAL1100) was used to measure cell viability.
The anti-proliferative activity of compounds is studied using a panel of tumor cells: HCT-116 (human colorectal carcinoma cell line), BxPC-3 (human pancreatic adenocarcinoma cell line), A549 (human lung carcinoma cell line), BT-549 (human breast carcinoma cell line), LNCaP (human prostate carcinoma cell line), and MIA Paca-2 (human pancreatic carcinoma cell line). These adherent cells (1,000-20,000) are plated in complete media (RPMI-1640, DMEM, F12K, or McCoy's 5A) containing 10% fetal bovine serum (Gibco) in tissue culture treated 96-well plates (Costar) and placed in a humidified incubator at 37° C., […], 5% CO2 for 18-24 hr. Media was removed and replaced with 90 μL fresh media. Compound is diluted in media containing 3% DMSO and added to cells. Background (C^−) relative fluorescent units are determined by incubating alamarBlue™ reagent for 6 hr using untreated cells plated 18 hr earlier. Untreated cells or cells containing compound are incubated for 96 hr. During the last 6 hr of the incubation period, alamarBlue™ reagent (10 μL) was added to each well and incubated in a humidified incubator at 37° C., […], 5% CO2.
AlamarBlue™ reduction is measured in a fluorescence plate reader with instrument settings for excitation at 530 nm and emission at 590 nm. […] Compound IC50 values are determined from % inhibition versus compound concentration curve plots using GraphPad Prism™ according to the 4 parameter logistic equation Y=Bottom+(Top−Bottom)/1+10^((Log EC50−X)*HillSlope)).

[2] = test system: human MiaPaCa-2 pancreatic xenografts; test: MiaPaCa-2 xenograft model, Example 88 alone and in combination with gemcitabine; format: in vivo, athymic mice; conditions: for Median Tumor Size: Example 88 10 mg/kg i.p. b.i.d. 10 days, gemcitabine 120 mg/kg i.p. q3d×4
Experimental: (§1) Compounds were dosed on the following schedules:
2) Gemcitabine was dosed 120 mg/kg, i.p., q3d×4 (days 1, 4, 7, 10).
Drug treatment started when mean tumor sizes reached approximately 120 mg (day 8). Mice-bearing sc tumors were randomized, and treatment groups consisted of 8 mice. The median tumor size for each group at various points in the study are listed below in Table B.

[3] = test system: human MiaPaCa-2 pancreatic xenografts; test: MiaPaCa-2 xenograft model, Example 88 alone and in combination with erlotinib; format: in vivo, athymic mice; conditions: for Median Tumor Size: Example 88 10 mg/kg i.p. b.i.d. 10 days, erlotinib 50 mg/kg p.o. daily 14 days; for complete responders (CR, 100% reduction in tumor size) / partial responders (PR, greater than 50% reduction in tumor size): day 42, out of 8 mice, 10 mg/kg
Experimental: as §1
2) Erlotinib was dosed 50 mg/kg, p.o., daily for 14 days (days 1-14).
Mice-bearing sc tumors were randomized, and treatment groups consisted of 8 mice.

[4] = day 8 of study (treatment start)
[5] = day 42, out of 8 mice, Example 88 10 mg/kg, gemcitabine 120 mg/kg

IC50 [1]: ≤ 3000 nM
SMILES: O=C(Nc1ccc2cn[nH]c2c1)c1cc2nc(Nc3ccccc3C(F)(F)F)[nH]c2cc1N1CCCCC1 [Example 57, 6-Piperidin-1-yl-2-(2-trifluoromethyl-phenylamino)-1H-benzimidazole-5-carboxylic acid (1H-indazol-6-yl)-amide]

IC50 [1]: ≤ 3000 nM
SMILES: O=C(Nc1ccc2cn[nH]c2c1)c1ccc2[nH]c(Nc3ccccc3C(F)(F)F)nc2c1 [Example 35, 2-(2-Trifluoromethylphenylamino)-3H-benzimidazole-5-carboxylic acid (1H-indazol-6-yl)-amide]

IC50 [1]: ≤ 3000 nM
SMILES: O=C(Nc1ccc2cn[nH]c2c1)c1cc2nc(Nc3ccccc3C(F)(F)F)[nH]c2cc1N1CCOCC1 [Example 54, 6-Morpholin-4-yl-2-(2-trifluoromethylphenylamino)-1H-benzimidazole-5-carboxylic acid (1H-indazol-6-yl)-amide]

IC50 [1]: ≤ 3000 nM
SMILES: CC(C)c1ccccc1Nc1nc2cc(C(=O)Nc3ccc4cn[nH]c4c3)c(N3CCN(C)CC3)cc2[nH]1 [Example 48, 2-(2-Isopropylphenylamino)-6-(4-methyl-piperazin-1-yl)-1H-benzimidazole-5-carboxylic acid (1H-indazol-6-yl)-amide]

IC50 [1]: ≤ 3000 nM
SMILES: CN1CCN(c2cc3[nH]c(Nc4ccccc4C(F)(F)F)nc3cc2C(=O)Nc2ccc3cn[nH]c3c2)CC1 [Example 50, 6-(4-Methylpiperazin-1-yl)-2-(2-trifluoromethyl-phenylamino)-1H-benzimidazole-5-carboxylic acid (1H-indazol-6-yl)-amide]

SMILES: Nc1ccn([C@@H]2O[C@H](CO)[C@@H](O)C2(F)F)c(=O)n1 [Gemcitabine, reference compound]
Median Tumor Size [2, 4]: 120 mg | Median Tumor Size ([2]; day 10 of study): 144 mg | Median Tumor Size ([2]; day 13 of study): 144 mg | Median Tumor Size ([2]; day 16 of study): 153 mg | Median Tumor Size ([2]; day 20 of study): 221 mg | inhibition of tumor growth relative to vehicle-treated tumors ([2]; day 23, Example 88 10 mg/kg, gemcitabine 120 mg/kg): 60% | Median Tumor Size ([2]; day 23 of study): 246 mg | Median Tumor Size ([2]; day 27 of study): 336 mg | Median Tumor Size ([2]; day 30 of study): 472 mg | Median Tumor Size ([2]; day 34 of study): 675 mg | Median Tumor Size ([2]; day 37 of study): 824 mg | complete responders (CR, 100% reduction in tumor size) [2, 5]: 0/8 | partial responders (PR, greater than 50% reduction in tumor size) [2, 5]: 0/8 | Median Tumor Size ([2]; day 42 of study): 988 mg

IC50 [1]: ≤ 3000 nM
SMILES: Cc1cccnc1Nc1nc2cc(C(=O)Nc3ccc4cn[nH]c4c3)ccc2[nH]1 [Example 36, 2-(3-Methylpyridin-2-ylamino)-3H-benzimidazole-5-carboxylic acid(1H-indazol-6-yl)-amide]

IC50 [1]: ≤ 3000 nM
SMILES: CC(C)c1ccccc1Nc1nc2cc(C(=O)Nc3ccc4cn[nH]c4c3)ccc2[nH]1 [Example 27, 2-(2-Isopropylphenylamino)-3H-benzimidazole-5-carboxylic acid (1H-indazol-6-yl)-amide]

SMILES: C#Cc1cccc(Nc2ncnc3cc(OCCOC)c(OCCOC)cc23)c1 [Erlotinib, erlotinib, reference compound]
Median Tumor Size [3, 4]: 120 mg | Median Tumor Size ([3]; day 10 of study): 144 mg | Median Tumor Size ([3]; day 13 of study): 192 mg | Median Tumor Size ([3]; day 16 of study): 267 mg | Median Tumor Size ([3]; day 20 of study): 363 mg | inhibition of tumor growth relative to vehicle-treated tumors ([3]; day 23, Example 88 10 mg/kg, erlotinib 50 mg/kg): 16% | Median Tumor Size ([3]; day 23 of study): 507 mg | Median Tumor Size ([3]; day 27 of study): 700 mg | Median Tumor Size ([3]; day 30 of study): 908 mg | Median Tumor Size ([3]; day 34 of study): 1224 mg | Median Tumor Size ([3]; day 37 of study): 1296 mg | complete responders (CR, 100% reduction in tumor size) ([3]; erlotinib 50 mg/kg): 0/8 | partial responders (PR, greater than 50% reduction in tumor size) ([3]; erlotinib 50 mg/kg): 0/8 | Median Tumor Size ([3]; day 42 of study): 1368 mg

SMILES: CCc1cccc(CC)c1Nc1nc2cc(C(=O)Nc3ccc4cn[nH]c4c3)ccc2[nH]1 [Example 91, 2-(2,6-diethylphenylamino)-3H-benzimidazole-5-carboxylic acid (1H-indazol-6-yl)-amide]
complete responders (CR, 100% reduction in tumor size) ([3]; erlotinib 50 mg/kg): 0/8 | partial responders (PR, greater than 50% reduction in tumor size) ([3]; erlotinib 50 mg/kg): 0/8

IC50 [1]: ≤ 3000 nM
SMILES: Cc1cccnc1Nc1nc2cc(C(=O)Nc3ccc4cn[nH]c4c3)c(N3CCN(C)CC3)cc2[nH]1 [Example 58, 6-(4-Methyl-piperazin-1-yl)-2-(3-methyl-pyridin-2-ylamino)-1H-benzimidazole-5-carboxylic acid (1H-indazol-6-yl)-amide]

IC50 [1]: ≤ 3000 nM
SMILES: Cc1cccnc1Nc1nc2cc(C(=O)Nc3ccc4cn[nH]c4c3)c(N3CCOCC3)cc2[nH]1 [Example 60, 2-(3-Methylpyridin-2-ylamino)-6-morpholin-4-yl-1H-benzimidazole-5-carboxylic acid (1H-indazol-6-yl)-amide]
